Laboratory results as given in paper PMC9612005 (Pharmaceutics, 2022).

Assays:
[1] = target: T1, cone CNG channels (CNGA3:CNGB3) (Homo sapiens, UniProt Q16281+Q9NQW8); experiment: Patch-clamp on inside-out patches, heterotetrameric cone CNG channels expressed in Xenopus laevis oocytes; type: cell-based; settings: for effect on cGMP-activated cone CNG-channel activity: analogue(s) co-applied with cGMP (50 µM; combination 50 µM inhibitor + activator); for EC50: concentration-activation relationship, Hill fit, read-out: EC50, cone CNG channels; for efficacy in activating cone CNG channels compared to cGMP: related to maximal cGMP-induced current
T1 construct: expressed in transfected cells; host or cells: Xenopus laevis oocytes (cRNA injection, pGEMHE vector); inside-out patches
T1 sequence (Q16281 1-694): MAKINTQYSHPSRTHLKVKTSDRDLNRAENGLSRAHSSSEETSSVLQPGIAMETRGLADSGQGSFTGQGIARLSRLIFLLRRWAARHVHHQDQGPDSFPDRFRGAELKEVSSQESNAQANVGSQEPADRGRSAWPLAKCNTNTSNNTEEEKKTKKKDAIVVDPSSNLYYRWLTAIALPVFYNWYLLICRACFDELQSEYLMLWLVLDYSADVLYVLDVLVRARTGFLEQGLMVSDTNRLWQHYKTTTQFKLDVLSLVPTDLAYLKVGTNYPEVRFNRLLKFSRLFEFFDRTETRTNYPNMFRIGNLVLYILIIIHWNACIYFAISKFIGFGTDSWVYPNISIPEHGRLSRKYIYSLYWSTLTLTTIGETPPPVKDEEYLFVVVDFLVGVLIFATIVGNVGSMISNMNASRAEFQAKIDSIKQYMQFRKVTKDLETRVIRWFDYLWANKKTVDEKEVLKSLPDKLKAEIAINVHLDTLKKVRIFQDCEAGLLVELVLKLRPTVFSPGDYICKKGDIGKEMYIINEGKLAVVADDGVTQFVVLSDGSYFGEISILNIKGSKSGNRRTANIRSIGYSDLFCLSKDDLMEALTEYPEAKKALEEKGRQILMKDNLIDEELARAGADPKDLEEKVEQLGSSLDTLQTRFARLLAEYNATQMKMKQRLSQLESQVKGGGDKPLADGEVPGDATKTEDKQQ
T1 sequence (Q9NQW8 1-809): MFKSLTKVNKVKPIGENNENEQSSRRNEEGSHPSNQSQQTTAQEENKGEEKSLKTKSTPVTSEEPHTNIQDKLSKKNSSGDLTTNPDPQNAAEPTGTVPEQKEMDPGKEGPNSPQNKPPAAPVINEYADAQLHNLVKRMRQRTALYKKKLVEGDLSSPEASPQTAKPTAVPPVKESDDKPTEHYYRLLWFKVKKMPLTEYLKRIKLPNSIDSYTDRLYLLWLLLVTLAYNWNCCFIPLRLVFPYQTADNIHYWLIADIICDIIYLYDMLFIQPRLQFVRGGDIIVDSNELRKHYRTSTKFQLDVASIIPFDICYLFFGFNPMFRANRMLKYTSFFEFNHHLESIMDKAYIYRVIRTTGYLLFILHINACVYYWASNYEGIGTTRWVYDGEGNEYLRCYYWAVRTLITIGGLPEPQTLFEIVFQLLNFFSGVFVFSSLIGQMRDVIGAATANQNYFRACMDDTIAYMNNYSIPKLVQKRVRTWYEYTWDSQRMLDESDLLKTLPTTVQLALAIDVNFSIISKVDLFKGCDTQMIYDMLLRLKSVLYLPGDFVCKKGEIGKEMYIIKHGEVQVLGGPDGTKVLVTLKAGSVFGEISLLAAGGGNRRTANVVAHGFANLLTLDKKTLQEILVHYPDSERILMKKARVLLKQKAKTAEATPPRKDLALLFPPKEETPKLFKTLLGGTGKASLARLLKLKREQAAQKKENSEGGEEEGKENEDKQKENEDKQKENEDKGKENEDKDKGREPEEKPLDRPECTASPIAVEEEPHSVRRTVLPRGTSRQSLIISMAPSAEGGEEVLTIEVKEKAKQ
Source text: (§1) The patch pipettes were pulled from borosilicate glass tubing (outer diameter 2.0 mm, inner diameter 1.0 mm; Hilgenberg GmbH, Malsfeld, Germany). The initial resistance of the solution-filled pipettes was 0.6–1.4 MΩ. […] For studying the activation and deactivation kinetics of CNG channels, we performed fast jumps between different ligand concentrations by means of a double-barreled θ-glass pipette mounted on a piezo-driven device, which was controlled by the computer. For measuring the time courses, the recording rate was 20 kHz.
The activation and deactivation time courses were determined by fitting the respective current traces with single exponentials:(3) I(t)=A∗exp[−t/τ] where A is the amplitude, t the time, and τ the time constant for either activation or deactivation.

[2] = target: T2, rod CNG channels (CNGA1:CNGB1a) (Bos taurus, UniProt Q00194+Q28181); experiment: Patch-clamp on inside-out patches, heterotetrameric rod CNG channels expressed in Xenopus laevis oocytes; type: cell-based, bovine; settings: for effect on cGMP-activated rod CNG-channel activity: analogue(s) co-applied with cGMP (50 µM; combination 50 µM inhibitor + activator); for efficacy in activating rod CNG channels compared to cGMP: related to maximal cGMP-induced current
T2 construct: expressed in transfected cells; host or cells: Xenopus laevis oocytes (cRNA injection, pGEMHE vector); inside-out patches
T2 sequence (Q00194 whole entry): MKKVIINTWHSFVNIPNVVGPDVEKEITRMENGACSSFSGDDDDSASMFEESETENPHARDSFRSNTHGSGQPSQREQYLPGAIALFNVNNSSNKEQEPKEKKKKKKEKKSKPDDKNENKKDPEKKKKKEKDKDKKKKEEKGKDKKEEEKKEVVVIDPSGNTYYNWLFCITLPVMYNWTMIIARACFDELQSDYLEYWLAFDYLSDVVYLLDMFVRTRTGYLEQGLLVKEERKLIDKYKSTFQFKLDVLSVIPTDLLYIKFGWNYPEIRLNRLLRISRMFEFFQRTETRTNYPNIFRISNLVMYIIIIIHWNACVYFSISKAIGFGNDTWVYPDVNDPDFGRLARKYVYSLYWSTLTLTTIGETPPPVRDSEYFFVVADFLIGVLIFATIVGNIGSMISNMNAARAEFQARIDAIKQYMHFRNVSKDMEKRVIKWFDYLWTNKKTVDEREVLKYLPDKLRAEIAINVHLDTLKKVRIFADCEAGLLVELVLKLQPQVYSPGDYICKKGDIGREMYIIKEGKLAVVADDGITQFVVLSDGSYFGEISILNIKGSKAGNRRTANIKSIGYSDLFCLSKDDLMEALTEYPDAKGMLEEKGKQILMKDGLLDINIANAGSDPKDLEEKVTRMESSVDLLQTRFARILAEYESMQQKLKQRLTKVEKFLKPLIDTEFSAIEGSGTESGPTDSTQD
T2 sequence (Q28181 whole entry): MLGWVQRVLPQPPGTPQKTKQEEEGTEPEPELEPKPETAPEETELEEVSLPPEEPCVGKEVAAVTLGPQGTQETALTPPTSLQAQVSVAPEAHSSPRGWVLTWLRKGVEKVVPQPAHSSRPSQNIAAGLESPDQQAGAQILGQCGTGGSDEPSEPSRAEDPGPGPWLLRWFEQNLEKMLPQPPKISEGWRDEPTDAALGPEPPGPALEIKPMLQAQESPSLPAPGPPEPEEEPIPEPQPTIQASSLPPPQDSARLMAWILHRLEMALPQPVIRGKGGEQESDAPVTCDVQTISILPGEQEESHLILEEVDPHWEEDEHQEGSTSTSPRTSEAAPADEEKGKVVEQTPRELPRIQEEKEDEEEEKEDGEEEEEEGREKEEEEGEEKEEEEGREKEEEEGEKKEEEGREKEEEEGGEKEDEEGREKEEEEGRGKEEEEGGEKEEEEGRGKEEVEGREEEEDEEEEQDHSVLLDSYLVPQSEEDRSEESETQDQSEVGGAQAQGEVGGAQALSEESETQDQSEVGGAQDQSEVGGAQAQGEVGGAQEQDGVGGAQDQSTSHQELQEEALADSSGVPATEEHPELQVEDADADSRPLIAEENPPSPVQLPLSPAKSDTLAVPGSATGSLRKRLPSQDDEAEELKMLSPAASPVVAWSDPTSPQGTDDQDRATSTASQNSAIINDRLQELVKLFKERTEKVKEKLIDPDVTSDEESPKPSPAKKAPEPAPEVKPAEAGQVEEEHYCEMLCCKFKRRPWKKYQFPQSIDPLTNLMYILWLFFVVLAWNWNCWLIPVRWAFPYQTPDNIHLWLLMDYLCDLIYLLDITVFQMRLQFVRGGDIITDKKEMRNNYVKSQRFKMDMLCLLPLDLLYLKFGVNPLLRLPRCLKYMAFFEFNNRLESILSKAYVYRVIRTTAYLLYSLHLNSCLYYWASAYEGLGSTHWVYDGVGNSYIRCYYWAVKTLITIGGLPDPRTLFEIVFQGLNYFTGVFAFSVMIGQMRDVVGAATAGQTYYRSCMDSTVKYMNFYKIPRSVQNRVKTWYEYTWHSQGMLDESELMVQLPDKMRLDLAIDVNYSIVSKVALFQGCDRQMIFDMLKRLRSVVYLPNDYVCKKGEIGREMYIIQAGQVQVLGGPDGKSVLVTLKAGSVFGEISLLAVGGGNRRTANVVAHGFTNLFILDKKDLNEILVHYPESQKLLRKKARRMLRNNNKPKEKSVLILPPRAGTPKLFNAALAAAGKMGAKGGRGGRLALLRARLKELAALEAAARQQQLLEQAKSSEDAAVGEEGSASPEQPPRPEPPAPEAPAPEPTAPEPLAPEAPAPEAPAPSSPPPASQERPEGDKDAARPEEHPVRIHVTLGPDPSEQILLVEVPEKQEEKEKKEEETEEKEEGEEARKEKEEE
Source text: as §1, with “kHz. […]” for “kHz.”

[3] = test system: CNG-channel in rods; set-up: method as in PMID 8778280; settings: previous study, ref [44]; cited from earlier work
[4] = 100 µM, +100 mV, activity triggered by 3 mM cGMP
[5] = cGMP + 50 µM of the cGMP analogue

Row | H (Hill coefficient), cone CNG channels [1, 5] | H (Hill coefficient), rod CNG channels [2, 5] | efficacy in activating cone CNG channels compared to cGMP ([1]; +100 mV) | efficacy in activating rod CNG channels compared to cGMP ([2]; +100 mV) | SMILES | effect on cGMP-activated cone CNG-channel activity [1] | also measured
1 |  |  |  |  | COc1ccc([C@H]2Sc3ccccc3N(CCN(C)C)C(=O)[C@H]2OC(C)=O)cc1 (relative stereo) [L-cis-diltiazem, reference compound] |  | block of cone CNG channel activity [1, 4]: ~ 63.4%; block of rod CNG channel activity [2, 4]: ~ 90.5%
2 | 1.5 | 1.05 |  |  | O=c1c2nc(Br)n([C@@H]3O[C@@H]4COP(=O)(O)O[C@H]4[C@H]3O)c2nc2[nH]c(-c3ccccc3)cn12 [8-Br-PET-cGMP] | under physiological cGMP it produced a potentiation of retinal CNG-channel activity, whereas at higher cGMP it caused minor inhibition | effect on cGMP-activated rod CNG-channel activity [2]: under physiological cGMP it produced a potentiation of retinal CNG-channel activity, whereas at higher cGMP it caused minor inhibition; Emax ([2]; read-out: efficacy of activating rod channel, of maximal activation): < 1%
3 |  |  |  |  | Nc1nc2c(nc(Br)n2[C@@H]2O[C@@H]3COP(=O)(O)O[C@H]3[C@H]2O)c(=O)[nH]1 [8-Br-cGMP] |  | H (Hill coefficient), cone CNG channels ([1]; ligand alone): 1.94; EC50 ([1]; ligand alone): 1.05 µM; H (Hill coefficient), rod CNG channels ([2]; ligand alone): 2.1; EC50 ([2]; ligand alone, concentration-activation relationship, Hill fit, read-out: EC50, rod CNG channels): 6.61 µM
4 |  |  | partial agonist | partial agonist | O=c1c2ncn([C@@H]3O[C@@H]4COP(=O)(O)O[C@H]4[C@H]3O)c2nc2[nH]c(-c3ccccc3)cn12 [PET-cGMP] |  | 
5 | 1.53 | 1.66 | lower efficacy than cGMP | lower efficacy than cGMP | O=c1c2nc(Br)n([C@@H]3O[C@@H]4CO[P@@](=O)(S)O[C@H]4[C@H]3O)c2nc2[nH]c(-c3ccc4ccccc4c3)cn12 [Rp-8-Br-(2-N)ET-cGMPS] |  | 
6 | 1.04 | 1.23 | drastically reduced the efficacy | drastically reduced the efficacy | Nc1nc2c(nc(Sc3ccc(Cl)cc3)n2[C@@H]2O[C@@H]3CO[P@@](=O)(S)O[C@H]3[C@H]2O)c(=O)[nH]1 [Rp-8-pCPT-cGMPS] | their activity at physiological cGMP increased, and at higher cGMP levels decreased | maximal CNG-channel activation in rods [3]: ~ 93%; effect on cGMP-activated rod CNG-channel activity [2]: their activity at physiological cGMP increased, and at higher cGMP levels decreased
7 | 1.84 | 1.68 | lower efficacy than cGMP | lower efficacy than cGMP | O=c1c2ncn([C@@H]3O[C@@H]4CO[P@@](=O)(S)O[C@H]4[C@H]3O)c2nc2[nH]c(-c3ccc4ccccc4c3)cn12 [Rp-(2-N)ET-cGMPS] |  | 
8 | 1.13 | 1.52 | lower efficacy than cGMP | lower efficacy than cGMP | Nc1nc2c(ncn2[C@@H]2O[C@@H]3CO[P@@](=O)(S)O[C@H]3[C@H]2O)c(=O)[nH]1 [Rp-cGMPS] | did not influence the activity of cone channels | 
9 | 1.64 | 2.06 | lower efficacy than cGMP | lower efficacy than cGMP | O=C1Cn2c(nc3c(nc(Br)n3[C@@H]3O[C@@H]4CO[P@@](=O)(S)O[C@H]4[C@H]3O)c2=O)N1 [Rp-ß-1,N2-Ac-Br-cGMPS, Rp-ß-1,N^2-Ac-Br-cGMPS] | did not influence the activity of cone channels | 
10 |  |  |  |  | Nc1nc2c(ncn2[C@@H]2O[C@@H]3COP(=O)(O)O[C@H]3[C@H]2O)c(=O)[nH]1 [cGMP, reference compound] |  | deactivation time constant τdeact, cone CNG channels ([1]; 5 µM cGMP alone or 5 µM cGMP + 50 µM inhibitor + 0.1 µM activator, concentration jump): 80.6 ± 4.6 ms; H (Hill coefficient), cone CNG channels ([1]; ligand alone): 1.47; EC50 ([1]; ligand alone): 11.1 µM; H (Hill coefficient), rod CNG channels ([2]; ligand alone): 2.1
